Test results: ChEMBL document CHEMBL4138123, “Design, synthesis and biological evaluation of novel pyrazolochalcones as potential modulators of PI3K/Akt/mTOR pathway and inducers of apoptosis in breast cancer cells” (Eur J Med Chem, 2017)

Key:
Format in all cases: functional
SK-MEL-5 = assay: Cytotoxicity against human SK-MEL-5 cells assessed as cell growth at 10 uM after 48 hrs by sulforhodamine B assay relative to control; conditions: SK-MEL-5, 48 h, read-out: Activity
A549 [1] = assay: Cytotoxicity against human A549/ATCC cells assessed as cell growth at 0.01 uM after 48 hrs by sulforhodamine B assay relative to control; conditions: A549, 48 h, read-out: Activity
IGROV-1 [2] = assay: Cytotoxicity against human IGROV1 cells assessed as cell growth at 100 uM after 48 hrs by sulforhodamine B assay relative to control; conditions: IGROV-1, 48 h, read-out: Activity
UO-31 [3] = assay: Cytotoxicity against human UO31 cells assessed as growth inhibition after 48 hrs by sulforhodamine B assay; conditions: UO-31, 48 h
A549 [4] = assay: Cytotoxicity against human A549/ATCC cells assessed as cell growth at 0.1 uM after 48 hrs by sulforhodamine B assay relative to control; conditions: A549, 48 h, read-out: Activity
NCI-H460 = assay: Cytotoxicity against human NCI-H460 cells assessed as cell growth at 10 uM after 48 hrs by sulforhodamine B assay relative to control; conditions: NCI-H460, 48 h, read-out: Activity
RPMI-8226 [5] = assay: Cytotoxicity against human RPMI8226 cells assessed as cell growth at 1 uM after 48 hrs by sulforhodamine B assay relative to control; conditions: RPMI-8226, 48 h, read-out: Activity
T47D = assay: Cytotoxicity against human T47D cells assessed as cell growth at 100 uM after 48 hrs by sulforhodamine B assay relative to control; conditions: read-out: Activity
HCC 2998 = assay: Cytotoxicity against human HCC2998 cells assessed as cell growth at 0.01 uM after 48 hrs by sulforhodamine B assay relative to control; conditions: HCC 2998, 48 h, read-out: Activity
HCT-116 = assay: Cytotoxicity against human HCT116 cells assessed as growth inhibition after 48 hrs by sulforhodamine B assay; conditions: HCT-116, 48 h
SK-OV-3 = assay: Cytotoxicity against human SKOV3 cells assessed as cell growth at 0.01 uM after 48 hrs by sulforhodamine B assay relative to control; conditions: SK-OV-3, 48 h, read-out: Activity
SNB-19 = assay: Cytotoxicity against human SNB19 cells assessed as cell growth at 10 uM after 48 hrs by sulforhodamine B assay relative to control; conditions: SNB-19, 48 h, read-out: Activity
BT-549 = assay: Cytotoxicity against human BT549 cells assessed as cell growth at 0.01 uM after 48 hrs by sulforhodamine B assay relative to control; conditions: BT-549, 48 h, read-out: Activity
HOP-62 [6] = assay: Cytotoxicity against human HOP62 cells assessed as cell growth at 10 uM after 48 hrs by sulforhodamine B assay relative to control; conditions: HOP-62, 48 h, read-out: Activity
U-251 = assay: Cytotoxicity against human U251 cells assessed as cell growth at 0.1 uM after 48 hrs by sulforhodamine B assay relative to control; conditions: U-251, 48 h, read-out: Activity
SF-539 = assay: Cytotoxicity against human SF539 cells assessed as cell growth at 0.01 uM after 48 hrs by sulforhodamine B assay relative to control; conditions: SF-539, 48 h, read-out: Activity
KM12 = assay: Cytotoxicity against human KM12 cells assessed as cell growth at 0.1 uM after 48 hrs by sulforhodamine B assay relative to control; conditions: KM12, 48 h, read-out: Activity
MOLT-4 = assay: Cytotoxicity against human MOLT4 cells assessed as cell growth at 0.1 uM after 48 hrs by sulforhodamine B assay relative to control; conditions: MOLT-4, 48 h, read-out: Activity
SR = assay: Cytotoxicity against human SR cells assessed as growth inhibition after 48 hrs by sulforhodamine B assay; conditions: for CC50: read-out: LC50 (the source's name)
Malme-3M = assay: Cytotoxicity against human MALME-3M cells assessed as cell growth at 10 uM after 48 hrs by sulforhodamine B assay relative to control; conditions: read-out: Activity
NCI-H226 = assay: Cytotoxicity against human NCI-H226 cells assessed as cell growth at 0.1 uM after 48 hrs by sulforhodamine B assay relative to control; conditions: NCI-H226, 48 h, read-out: Activity
UO-31 [7] = assay: Cytotoxicity against human UO31 cells assessed as cell growth at 0.01 uM after 48 hrs by sulforhodamine B assay relative to control; conditions: UO-31, 48 h, read-out: Activity
A498 = assay: Cytotoxicity against human A498 cells assessed as cell growth at 0.1 uM after 48 hrs by sulforhodamine B assay relative to control; conditions: A498, 48 h, read-out: Activity
SW-620 = assay: Cytotoxicity against human SW620 cells assessed as growth inhibition after 48 hrs by sulforhodamine B assay; conditions: SW-620, 48 h
NCI-H23 = assay: Cytotoxicity against human NCI-H23 cells assessed as cell growth at 1 uM after 48 hrs by sulforhodamine B assay relative to control; conditions: NCI-H23, 48 h, read-out: Activity
NCI-H322M = assay: Cytotoxicity against human NCI-H322M cells assessed as cell growth at 0.01 uM after 48 hrs by sulforhodamine B assay relative to control; conditions: read-out: Activity
IGROV-1 [8] = assay: Cytotoxicity against human IGROV1 cells assessed as growth inhibition after 48 hrs by sulforhodamine B assay; conditions: IGROV-1, 48 h
786-0 = assay: Cytotoxicity against human 786-0 cells assessed as cell growth at 100 uM after 48 hrs by sulforhodamine B assay relative to control; conditions: 786-0, 48 h, read-out: Activity
HL-60(TB) = assay: Cytotoxicity against human HL-60(TB) cells assessed as cell growth at 0.1 uM after 48 hrs by sulforhodamine B assay relative to control; conditions: HL-60, 48 h, read-out: Activity
NCI-H522 = assay: Cytotoxicity against human NCI-H522 cells assessed as cell growth at 1 uM after 48 hrs by sulforhodamine B assay relative to control; conditions: NCI-H522, 48 h, read-out: Activity
HOP-62 [9] = assay: Cytotoxicity against human HOP62 cells assessed as cell growth at 1 uM after 48 hrs by sulforhodamine B assay relative to control; conditions: HOP-62, 48 h, read-out: Activity
Hs-578T = assay: Cytotoxicity against human Hs 578T cells assessed as growth inhibition after 48 hrs by sulforhodamine B assay
M14 = assay: Cytotoxicity against human M14 cells assessed as cell growth at 10 uM after 48 hrs by sulforhodamine B assay relative to control; conditions: M14, 48 h, read-out: Activity
HCT-15 = assay: Cytotoxicity against human HCT15 cells assessed as cell growth at 0.01 uM after 48 hrs by sulforhodamine B assay relative to control; conditions: HCT-15, 48 h, read-out: Activity
RPMI-8226 [10] = assay: Cytotoxicity against human RPMI8226 cells assessed as cell growth at 10 uM after 48 hrs by sulforhodamine B assay relative to control; conditions: RPMI-8226, 48 h, read-out: Activity

## COc1ccc(-c2cc(/C=C/C(=O)c3ccc(N)cc3)[nH]n2)cc1
SK-MEL-5
  growth at 10 µM: -3%
A549 [1]
  growth at 0.01 µM: 101%
IGROV-1 [2]
  growth at 100 µM: -67%
UO-31 [3]
  GI50: 1.18 µM
  LC50: 5.54 µM
  TGI: 2.56 µM
A549 [4]
  growth at 0.1 µM: 98%
NCI-H460
  growth at 10 µM: -40%
RPMI-8226 [5]
  growth at 1 µM: 36%
T47D
  growth at 100 µM: -54%
HCC 2998
  growth at 0.01 µM: 96%
HCT-116
  GI50: 1.38 µM
  TGI: 3.61 µM
SK-OV-3
  growth at 0.01 µM: 101%
SNB-19
  growth at 10 µM: 5%
BT-549
  growth at 0.01 µM: 92%
HOP-62 [6]
  growth at 10 µM: -15%
U-251
  growth at 0.1 µM: 90%
SF-539
  growth at 0.01 µM: 98%
KM12
  growth at 0.1 µM: 97%
MOLT-4
  growth at 0.1 µM: 98%
SR
  GI50: 0.79 µM
  TGI: 6.09 µM
  CC50: 60.1 µM
Malme-3M
  growth at 10 µM: -23%
NCI-H226
  growth at 0.1 µM: 84%
UO-31 [7]
  growth at 0.01 µM: 90%
A498
  growth at 0.1 µM: 97%
SW-620
  GI50: 1.69 µM
  LC50 (lethal concentration, 50% net cell kill): 56.2 µM
  TGI: 5.41 µM
NCI-H23
  growth at 1 µM: 93%
NCI-H322M
  growth at 0.01 µM: 95%
IGROV-1 [8]
  GI50: 2.27 µM
  LC50: 43.3 µM
  TGI: 6.45 µM
786-0
  growth at 100 µM: -57%
HL-60(TB)
  growth at 0.1 µM: 97%
NCI-H522
  growth at 1 µM: 61%
HOP-62 [9]
  growth at 1 µM: 102%
Hs-578T
  GI50: 4.04 µM
  LC50: > 100 µM
  TGI: 24.4 µM
M14
  growth at 10 µM: -24%
HCT-15
  growth at 0.01 µM: 97%
RPMI-8226 [10]
  growth at 10 µM: -35%

## COc1ccc(-c2cc(/C=C/C(=O)c3ccc(OC)c(OC)c3)[nH]n2)cc1
SK-MEL-5
  growth at 10 µM: -66%
A549 [1]
  growth at 0.01 µM: 93%
IGROV-1 [2]
  growth at 100 µM: -84%
UO-31 [3]
  GI50: 1.17 µM
  LC50: 5.1 µM
  TGI: 2.44 µM
A549 [4]
  growth at 0.1 µM: 90%
NCI-H460
  growth at 10 µM: -43%
RPMI-8226 [5]
  growth at 1 µM: 8%
T47D
  growth at 100 µM: -83%
HCC 2998
  growth at 0.01 µM: 100%
HCT-116
  GI50: 1.01 µM
  LC50: 6.08 µM
  TGI: 2.48 µM
SK-OV-3
  growth at 0.01 µM: 109%
SNB-19
  growth at 10 µM: -31%
BT-549
  growth at 0.01 µM: 100%
HOP-62 [6]
  growth at 10 µM: -25%
U-251
  growth at 0.1 µM: 84%
SF-539
  growth at 0.01 µM: 95%
KM12
  growth at 0.1 µM: 103%
MOLT-4
  growth at 0.1 µM: 108%
SR
  GI50: 0.67 µM
  TGI: 3.74 µM
  CC50: > 100 µM
Malme-3M
  growth at 10 µM: -70%
NCI-H226
  growth at 0.1 µM: 90%
UO-31 [7]
  growth at 0.01 µM: 86%
A498
  growth at 0.1 µM: 79%
SW-620
  GI50: 1.35 µM
  LC50 (lethal concentration, 50% net cell kill): 9.54 µM
  TGI: 3.59 µM
NCI-H23
  growth at 1 µM: 98%
NCI-H322M
  growth at 0.01 µM: 94%
IGROV-1 [8]
  GI50: 1.57 µM
  LC50: 8.49 µM
  TGI: 3.65 µM
786-0
  growth at 100 µM: -96%
HL-60(TB)
  growth at 0.1 µM: 104%
NCI-H522
  growth at 1 µM: 11%
HOP-62 [9]
  growth at 1 µM: 94%
Hs-578T
  GI50: 3.38 µM
  LC50: > 100 µM
  TGI: 29 µM
M14
  growth at 10 µM: -42%
HCT-15
  growth at 0.01 µM: 95%
RPMI-8226 [10]
  growth at 10 µM: -56%

## COc1ccc(-c2cc(/C=C/C(=O)c3ccc(N)cc3)[nH]n2)cc1OC
SK-MEL-5
  growth at 10 µM: 6%
A549 [1]
  growth at 0.01 µM: 97%
IGROV-1 [2]
  growth at 100 µM: -62%
UO-31 [3]
  GI50: 3.03 µM
  LC50: 43.2 µM
  TGI: 13.1 µM
A549 [4]
  growth at 0.1 µM: 93%
NCI-H460
  growth at 10 µM: -49%
RPMI-8226 [5]
  growth at 1 µM: 59%
T47D
  growth at 100 µM: -40%
HCC 2998
  growth at 0.01 µM: 102%
HCT-116
  GI50: 1.71 µM
  LC50: 7.19 µM
  TGI: 3.51 µM
SK-OV-3
  growth at 0.01 µM: 88%
SNB-19
  growth at 10 µM: 31%
BT-549
  growth at 0.01 µM: 84%
HOP-62 [6]
  growth at 10 µM: -1%
U-251
  growth at 0.1 µM: 95%
SF-539
  growth at 0.01 µM: 93%
KM12
  growth at 0.1 µM: 104%
MOLT-4
  growth at 0.1 µM: 106%
SR
  GI50: 0.58 µM
  TGI: 5.31 µM
  CC50: > 100 µM
Malme-3M
  growth at 10 µM: 37%
NCI-H226
  growth at 0.1 µM: 91%
UO-31 [7]
  growth at 0.01 µM: 92%
A498
  growth at 0.1 µM: 80%
SW-620
  GI50: 2.5 µM
  LC50 (lethal concentration, 50% net cell kill): 82.9 µM
  TGI: 6.94 µM
NCI-H23
  growth at 1 µM: 99%
NCI-H322M
  growth at 0.01 µM: 96%
IGROV-1 [8]
  GI50: 4.56 µM
  LC50: 73 µM
  TGI: 19 µM
786-0
  growth at 100 µM: -97%
HL-60(TB)
  growth at 0.1 µM: 104%
NCI-H522
  growth at 1 µM: 87%
HOP-62 [9]
  growth at 1 µM: 92%
Hs-578T
  GI50: 6.57 µM
  LC50: > 100 µM
  TGI: > 100 µM
M14
  growth at 10 µM: -42%
HCT-15
  growth at 0.01 µM: 93%
RPMI-8226 [10]
  growth at 10 µM: -20%
